Experiments:
[1] = test system: polymorph nuclear leukocytes (PMNs), c-GMP; test: Stimulation of c-GMP content in PMNs; assay type: cell-based, human; conditions: 37° C., 10 minutes
Procedure: Compounds according to the invention were tested for their ability to increase the content of cyclic guanosine monophosphate (c-GMP), to inhibit the synthesis of the leukotriene B4 (LTB4), and to inhibit the chemotactical movement of polymorph nuclear leukocytes (PMN). The polymorph nuclear leukocytes play a vital part in the cellular part of the inflammation process. At diseases, such as asthma, the mucuos membrane of the respiratory passages is swollen as a result of an inflammation with a significant infiltration of polymorph nuclear leukocytes (PMN's) in particular. Particularly effective substances for the treatment of asthma are such which in addition to relaxing the musculature in the respiratory passages also have an anti-inflammatory effect on the cellular phase of the inflammatory process, that is inhibiting the leukocyte function.
Isolated human PMNs are incubated at 37° C. for 10 minutes, whereafter the content of cyclic guanosine monophosphate (c-GMP) is measured. Further, the synthesis of the LTB4 is determined after stimulation with Ca-ionophore (A23187) and the chemotaxis (controlled movement) towards FMLP (a substance attracting the polymorph nuclear leukocytes, PMNs) is determined.
Three compounds according to the invention and the reference substance SIN-1 were tested for their ability to stimulate the content of cyclic guanosine monophosphate (c-GMP).

blood platelets = test: Inhibition of blood platelet aggregation (aggregometer, ADP); assay type: cell-based, human (healthy testees); conditions: Platelet, 0.05 h; human PRP, ADP 2 to 4 μM, 3 min incubation, 37° C.; read-out: IC50 (Inhibition of blood platelet aggregation)
How it was run: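 Citrated human PRP (0.38% sodium citrate final; donors drug-free ≥8 days) preincubated 3 min with test substance at 37 °C under stirring, then ADP 2 to 4 μM added; aggregation followed by light transmission against PPP. IC50 from linear regression of % inhibition vs log concentration.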

[2] = biological target: T1, soluble guanylate cyclase (Homo sapiens, UniProt Q02153); test: Stimulation of guanylate cyclase from blood platelets (RIA); assay type: biochemical; conditions: 37° C.
T1 construct: The guanylate cyclase activity in the supernatant after incubation with and without the test substance; endogenous in cells; host or cells: human blood platelets, supernatant of homogenate
T1 sequence (Q02153 1-619): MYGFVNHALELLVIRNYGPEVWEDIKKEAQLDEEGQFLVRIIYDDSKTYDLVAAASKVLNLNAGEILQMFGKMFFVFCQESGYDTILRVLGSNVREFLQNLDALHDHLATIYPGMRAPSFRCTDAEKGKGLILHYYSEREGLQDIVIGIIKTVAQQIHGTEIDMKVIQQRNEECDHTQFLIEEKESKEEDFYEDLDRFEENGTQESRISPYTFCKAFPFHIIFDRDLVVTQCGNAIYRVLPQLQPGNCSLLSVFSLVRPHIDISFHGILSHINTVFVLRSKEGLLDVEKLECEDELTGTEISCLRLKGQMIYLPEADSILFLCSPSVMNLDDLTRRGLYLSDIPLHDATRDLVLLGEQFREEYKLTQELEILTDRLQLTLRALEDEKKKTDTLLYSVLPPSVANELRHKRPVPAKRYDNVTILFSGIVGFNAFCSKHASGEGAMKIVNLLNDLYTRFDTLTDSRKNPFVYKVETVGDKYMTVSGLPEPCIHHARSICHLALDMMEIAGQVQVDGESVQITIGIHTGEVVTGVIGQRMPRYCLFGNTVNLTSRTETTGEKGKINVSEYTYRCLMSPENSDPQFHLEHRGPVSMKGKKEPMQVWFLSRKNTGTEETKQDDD
T1 sequence (Q02108 1-690 partner): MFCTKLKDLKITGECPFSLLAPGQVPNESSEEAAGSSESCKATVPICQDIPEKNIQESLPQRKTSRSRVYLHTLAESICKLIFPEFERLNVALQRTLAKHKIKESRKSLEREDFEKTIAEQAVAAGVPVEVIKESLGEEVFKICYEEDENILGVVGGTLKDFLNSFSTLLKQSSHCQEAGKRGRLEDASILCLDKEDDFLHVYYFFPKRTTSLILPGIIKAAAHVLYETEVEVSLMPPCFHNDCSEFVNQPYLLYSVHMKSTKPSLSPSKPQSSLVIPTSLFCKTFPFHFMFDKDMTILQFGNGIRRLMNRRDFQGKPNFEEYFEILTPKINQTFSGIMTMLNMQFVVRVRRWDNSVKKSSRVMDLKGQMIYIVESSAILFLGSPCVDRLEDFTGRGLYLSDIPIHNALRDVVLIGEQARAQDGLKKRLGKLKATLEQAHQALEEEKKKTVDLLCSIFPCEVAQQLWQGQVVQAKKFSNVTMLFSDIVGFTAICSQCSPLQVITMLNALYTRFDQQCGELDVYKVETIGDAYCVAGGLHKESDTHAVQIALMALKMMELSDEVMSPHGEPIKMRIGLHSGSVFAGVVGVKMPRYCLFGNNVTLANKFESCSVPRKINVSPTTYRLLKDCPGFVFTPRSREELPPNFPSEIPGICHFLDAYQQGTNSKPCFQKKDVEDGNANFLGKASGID

IC50 (blood platelets): 180 nM
Guanylate cyclase activity ([2]; 0.01 μM): 2225 pmole c-GMP/mg prot. × 15 minutes
Guanylate cyclase activity ([2]; 10 μm (so in the source)): 47298 pmole c-GMP/mg prot. × 15 minutes
SMILES: COc1ccc(Cl)cc1-[n+]1noc([NH-])n1 [Example 20]
c-GMP in PMNs ([1]; 1 μM): 175 fmole/10^6 cells
c-GMP in PMNs ([1]; 10 μM): 492 fmole/10^6 cells
c-GMP in PMNs ([1]; 100 μM): 866 fmole/10^6 cells

Source: US5405857A, “3-substituted 1,2,3,4,-oxatriazole-5-imine compounds, a process for the preparation thereof and a pharmaceutical preparation containing said compounds” (A/S GEA Farmaceutisk Fabrik, priority 1991, dated 1995)
